Measured values taken from patent publication US20250345592A1, “BIODEGRADABLE ION PATCH AND METHOD FOR MANUFACTURING THE SAME” (SEOUL NATIONAL UNIVERSITY R&DB FOUNDATION, priority 2023, published 2025).

Assay type: in vitro ADME
Protocol: To enhance the absorption efficiency of the drug loaded in the provided gel, the current density applied to the ion patch was adjusted. Specifically, caffeine was added to the gelatin gel laminated on the anode of the ion patch, and various current densities of 50, 100, and 150 μA were applied. The amount of caffeine absorbed into the skin was then measured and compared.

Compound: Cn1c(=O)c2c(ncn2C)n(C)c1=O [caffeine]
- amount of caffeine absorbed into the skin: highest in the order of 150, 50, and 100 μA current densities
